Test results from patent publication US12378521B2, “Method for enhancing production of genetically engineered autologous T cells” (AMGEN INC., priority 2020, dated 2025).

Assays:
[1] = tested on: apheresed donor cells; assay: Growth and viability of cells expanded in media supplemented with 2-DG; format: cell-based, human
Experimental: A portion of the washed apheresed donor cells comprising 1.2E9 nucleated cells were transferred into two transfer bags under the Dilute program using Sepax C-Pro processing system with the same CS-600.1 Kit (a new kit was not used). Into one bag was added about 8 ml of Media 1 (OpTmizer™ complete media containing 300 IU/mL rhIL-2 (ThermoFisher) and 2 mM 2-Deoxy-D-glucose (2-DG) (MilliporeSigma, Burlington, MA)). Into the second bag was added about 8 ml of Media 2 (OpTmizer™ complete media containing 300 IU/mL rhIL-2 (ThermoFisher)). To each was added 7.5 ml Immunocult™ anti-CD3/CD28/[…] (25 μl/ml media with cells, Stemcell Technologies). The amount of activator was determined based on the culture volume of 300 ml that was used in the culture/activation step below. The bags were incubated for 1 hour at room temperature to allow for saturation of antibody binding.
A 2 L XURI® SP Perf Cellbag bioreactor (GE Healthcare) was connected to a XURI® Cell Expansion System W25 and 300 ml Media 1 was added and allowed to equilibrate at 37° C., 5% CO2, gas flow rate of 0.1 L/min, and a rocking rate of 6 rpm at a 6° angle. […]
On Day 1, the nucleated cells in each bag were counted and the amount of a lentiviral vector (comprising a polynucleotide encoding a TCR) corresponding to a MOI of 1 functional titer was diluted in 10 ml of Media 1 or Media 2 and placed in transfer bags. […]
On Day 2, about half the volume of the culture media in each bioreactor bag was exchanged using three 50 ml bag washouts through feed-line and waste-line. Cell counts were taken daily and viable cell density (VCD), viability, dissolved oxygen, metabolites were determined as described above. Cell phenotypes were determined for all samples tested. […]
Total viable cell density, viability, glucose and lactate measurements were taken each day. Phenotyping was determined on Days 3, 5 and 7. […]
Total viable cell density, viability, glucose and lactate measurements were taken each day. Phenotyping was determined on Days 9 and 14.

[2] = tested on: T2 cells; assay: Potency assay: cytotoxicity against peptide-pulsed T2 cells expressing Luciferase; format: cell-based; details: peptide 1 μM, E:T 1:1, 48 hours
Experimental: (§1) T2 cells expressing Luciferase were pulsed with the peptide recognized by the engineered TCR or with DMSO for 4 hours and the cells were washed before setting up a co-culture assay with 20,000 total T cells at a 1:1 (E:T) ratio. (A) 48 hours later, the luciferase signal was measured using the Steady Glo® Luciferase Assay System (Promega). Specific cytotoxicity was measured relative to the no peptide T2 cells cultured with the TCR T cells. (B) IFN-γ expression was measured using the AlphaLISA® detection kit (Perkin Elmer Waltham, MA) after 24 hours of co-culture. […] In addition, 24 hour accumulated release of IFN-γ was higher for T cells in non-2-DG media cross all concentration of peptide tested. […] Culture media containing 2-DG was used throughout the entire process (10 days).

[3] = tested on: T2 cells; assay: IFN-γ expression after co-culture with T2 cells (AlphaLISA); format: cell-based; details: 24 hours co-culture, all peptide concentrations tested
Experimental: as §1

[4] = tested on: T cells; assay: Transgene expression of cells expanded in media with 2-DG; format: cell-based, human
Experimental: On Day 1, the nucleated cells in each bag were counted and the amount of a lentiviral vector (comprising a polynucleotide encoding a TCR) corresponding to a MOI of 1 functional titer was diluted in 10 ml of Media 1 or Media 2 and placed in transfer bags. The transfer bags were sterile welded on XURI® Cellbag feed-lines and the lentivirus was then transferred into each of the bioreactors via gravity flow. The cells were incubated at 37° C., 5% CO2, gas flow rate of 0.1 L/min, and a rocking rate of 2 rpm at a 2° angle, for 20-24 hours.
In contrast, transgene expression of T cell in non-2-DG media decreased to 44.4% at high cell density ([…]).

[5] = tested on: T cells; assay: T cell differentiation phenotyping (Tscm, Tcm, Tem) with 2-DG; format: cell-based, human
Experimental: Tscm, Tcm, Tem, and Tte subsets were analyzed by immunophenotyping based on their expression of CD45RA, CD45RO, CD95, and CCR7.
2-DG was added to culture medium between Days 0 and 7 and the feed medi was replaced with non-2-DG media (Media 1) from Days 7-14. […] The T cells continued differentiation after 2-DG was perfused out from culture media and ended at a similar level of differentiation as T cells in non-2-DG media (Media 1).
as §1

[6] = tested on: T cells; assay: CD25 expression by cells expanded in media with 2-DG; format: cell-based, human
Description: Even through CD25 expression by T cells in both conditions saturated at ±80%. T cells in 2-DG media retained CD25 better at Days[…] and 9 than the cells in the non-2-DG media. This may be due to the higher transgene expression and T cell yield for T cells generated in the 2-DG media.

[7] = tested on: T cells; assay: Leukocyte subsets in harvested T cells by immunophenotyping; format: cell-based, human; details: at harvest, both conditions
Experimental: Analysis of human B cells (CD19), monocytes (CD14), NK cells (CD56/16), NKT cells (CD3+CD56+), and T cells (CD3+Cd56−) were performed by immunophenotyping.

[8] = tested on: glycolysis; assay: Glucose and lactate concentrations in culture (Cedex Bio Analyzer); format: cell-based, human
Experimental: Glucose and lactate were measured using Cedex Bio Analyzer (Roche, Indianapolis, IN). […] In addition, the effect of 2-DG was reversible as restoration of glucose (A) and lactate (B) levels was found after removal of 2-DG from the media from Day 7 to 14.

O=CC[C@@H](O)[C@H](O)[C@H](O)CO [2-DG, 2-deoxy-D-glucose]
T cells yielded ([1]; 2 mM 2-DG media, 14 days, without 2-DG 25 billion): 35 billion T cells | Viability compared with non-2-DG media ([1]; Day 4 to Day 10): slightly higher viability | Overall viability ([1]; both media conditions): above 70% | T2 cell lysis versus T cells from non-2-DG media [2]: No significant difference | 24 hour accumulated release of IFN-γ versus non-2-DG media [3]: lower level of IFN-γ | Transgene expression by T cells ([4]; 2-DG media, non-2-DG media 54%): 56% | Transgene expression at high cell density ([4]; cell density 35 billion cells/ml, non-2-DG media 44.4% at 25 billion cells/ml): 50.4% | collected Tscm and Tcm subsets ([5]; 2-DG throughout entire process (10 days), non-2-DG media 43%): 59% | Tscm subset ([5]; Day 5, non-2-DG media 14%): 26% | combined Tcm and Tscm ([5]; Day 7, non-2-DG media 56%): 86% | CD25 expression in response to activation ([6]; 2-DG media, non-2-DG media 46%): 32% | CD25 expression at saturation ([6]; both conditions): ~80% | CD3+ cell purity [7]: above 98% | Glucose concentration in spent media compared to non-2-DG condition ([8]; 2-DG media (Media 1)): higher glucose concentration | Lactate concentration in spent media compared to non-2-DG condition ([8]; 2-DG media (Media 1)): higher lactate concentration | Effect on glucose and lactate levels after removal of 2-DG ([8]; 2-DG removed from media Day 7 to 14): reversible
